Laboratory results as given in PubChem BioAssay (NCI).
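Each compound was tested at five concentrations against cells in 96-well plates for 48 hours. TGI denotes the concentration required for complete inhibition of growth.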

Experiments:
Test in all cases: DTP human tumour cell line panel, 48 h
A498 renal = system: A498 renal
HOP-62 NSCLC = system: HOP-62 NSCLC
SK-MEL-2 melanoma = system: SK-MEL-2 melanoma
A549 NSCLC = system: A549 NSCLC
NCI-H460 lung = system: NCI-H460 lung
ACHN renal = system: ACHN renal
KM12 colon = system: KM12 colon
SF-539 CNS = system: SF-539 CNS
OVCAR-8 ovarian = system: OVCAR-8 ovarian
SK-OV-3 ovarian = system: SK-OV-3 ovarian
LOX IMVI melanoma = system: LOX IMVI melanoma
HCT-116 colon = system: HCT-116 colon
HS 578T breast = system: HS 578T breast
TK-10 renal = system: TK-10 renal
SW-620 colon = system: SW-620 colon

NCCN1C(=O)c2ccccc2C1c1ccc(Cl)cc1 (stereo not given)
TGI (A498 renal): > 100 µM | TGI (HOP-62 NSCLC): > 100 µM | TGI (SK-MEL-2 melanoma): > 100 µM | TGI (A549 NSCLC): > 100 µM | TGI (NCI-H460 lung): > 100 µM | TGI (ACHN renal): > 100 µM | TGI (KM12 colon): > 100 µM | TGI (SF-539 CNS): > 100 µM | TGI (OVCAR-8 ovarian): > 100 µM | TGI (SK-OV-3 ovarian): > 100 µM | TGI (LOX IMVI melanoma): > 100 µM | TGI (HCT-116 colon): > 100 µM | TGI (HS 578T breast): > 100 µM | TGI (TK-10 renal): > 100 µM | TGI (SW-620 colon): > 100 µM

CC(Oc1ccccc1)C(=O)NNC(=O)OC(C)(C)C (stereo not given)
TGI (A498 renal): > 100 µM | TGI (HOP-62 NSCLC): > 100 µM | TGI (SK-MEL-2 melanoma): > 100 µM | TGI (A549 NSCLC): > 100 µM | TGI (NCI-H460 lung): > 100 µM | TGI (ACHN renal): > 100 µM | TGI (KM12 colon): > 100 µM | TGI (SF-539 CNS): > 100 µM | TGI (OVCAR-8 ovarian): > 100 µM | TGI (SK-OV-3 ovarian): > 100 µM | TGI (LOX IMVI melanoma): > 100 µM | TGI (HCT-116 colon): > 100 µM | TGI (HS 578T breast): > 100 µM | TGI (TK-10 renal): > 100 µM | TGI (SW-620 colon): > 100 µM

Brc1cccc(C2ON=C(c3ccccc3)N2C23CC4CC(CC(C4)C2)C3)c1 (stereo not given)
TGI (A498 renal): > 10 µM | TGI (HOP-62 NSCLC): > 10 µM | TGI (SK-MEL-2 melanoma): > 10 µM | TGI (A549 NSCLC): > 10 µM | TGI (NCI-H460 lung): > 10 µM | TGI (ACHN renal): > 10 µM | TGI (KM12 colon): > 10 µM | TGI (SF-539 CNS): > 10 µM | TGI (OVCAR-8 ovarian): > 10 µM | TGI (SK-OV-3 ovarian): > 10 µM | TGI (LOX IMVI melanoma): > 10 µM | TGI (HCT-116 colon): > 10 µM | TGI (HS 578T breast): > 10 µM | TGI (TK-10 renal): > 10 µM | TGI (SW-620 colon): > 10 µM

C(=Nc1ccc(-c2nc3ccccc3s2)cc1)c1ccc[nH]1
TGI (A498 renal): 36.5 µM | TGI (HOP-62 NSCLC): 27.6 µM | TGI (SK-MEL-2 melanoma): 32 µM | TGI (A549 NSCLC): > 100 µM | TGI (NCI-H460 lung): 38.1 µM | TGI (ACHN renal): 60.7 µM | TGI (KM12 colon): 71.3 µM | TGI (SF-539 CNS): 37.3 µM | TGI (OVCAR-8 ovarian): > 100 µM | TGI (SK-OV-3 ovarian): 51.6 µM | TGI (LOX IMVI melanoma): 33.3 µM | TGI (HCT-116 colon): 29.9 µM | TGI (HS 578T breast): 53.4 µM | TGI (TK-10 renal): 64.2 µM | TGI (SW-620 colon): 53.8 µM

Cc1cc(S(=O)(=O)Nc2n[nH]c(N)n2)c(Cl)cc1Cl
TGI (A498 renal): > 10 µM | TGI (HOP-62 NSCLC): > 10 µM | TGI (SK-MEL-2 melanoma): > 10 µM | TGI (A549 NSCLC): > 10 µM | TGI (NCI-H460 lung): > 10 µM | TGI (ACHN renal): > 10 µM | TGI (KM12 colon): > 10 µM | TGI (SF-539 CNS): > 10 µM | TGI (OVCAR-8 ovarian): > 10 µM | TGI (SK-OV-3 ovarian): > 10 µM | TGI (LOX IMVI melanoma): > 10 µM | TGI (HCT-116 colon): > 10 µM | TGI (HS 578T breast): > 10 µM | TGI (TK-10 renal): > 10 µM | TGI (SW-620 colon): > 10 µM

COC(=O)c1cc(OC)c(OC)c(OC)c1-c1cc2c(cc1C=O)OCO2
TGI (A498 renal): > 10 µM | TGI (HOP-62 NSCLC): > 10 µM | TGI (SK-MEL-2 melanoma): > 10 µM | TGI (A549 NSCLC): > 10 µM | TGI (NCI-H460 lung): > 10 µM | TGI (ACHN renal): > 10 µM | TGI (KM12 colon): > 10 µM | TGI (SF-539 CNS): > 10 µM | TGI (OVCAR-8 ovarian): > 10 µM | TGI (SK-OV-3 ovarian): > 10 µM | TGI (LOX IMVI melanoma): > 10 µM | TGI (HCT-116 colon): > 10 µM | TGI (HS 578T breast): > 10 µM | TGI (TK-10 renal): > 10 µM | TGI (SW-620 colon): > 10 µM
